Marks after values point to notes of the source that are not given here.
Assays:
[1] = in water; cited from earlier work
[2] = Optical properties of the CypH dyes: absorbance maximum and extinction coefficient in EtOH (Table 1); assay type: physicochemical
Protocol: (§1) Characterization: All new CypH dyes were characterized by proton NMR and mass spectrometry to confirm identity. NMR data was consistent with the structure and mass spectrometry results gave the expected mass of the dye±0.5 amu. An HPLC method was developed (see below) and used to assess dye purity. […] Retention times on the column generally correlated with lipophilicity of the dyes with water soluble dyes containing sulfate groups eluting out earlier (@10.6 min for CypH-3, 6, 9) than CypH-1 (@11.9 min) and the more lipophilic dyes later. Optical properties of the dyes, acid dissociation constants and solubilities were also determined. Synthetic intermediates were also characterized by proton NMR.

[3] = Solubility of the CypH dyes (Table 1); assay type: physicochemical; details: in H2O
Protocol: as §1

[4] = Fluorescence properties of the CypH dyes at pH 5.0 and pH 7.5 (Table 2); assay type: physicochemical
From the text: The excitation and emission maxima of CypH-1 are 760 and 777 nm, respectively. The signal intensity ratio of pH 5 over pH 7.5 was about 10. The meso-bridge ring size, lipophilicity and electro-density of CypH-1 was modified to provide better optical property. […] The best compound from this group was CypH-5 whose fluorescence ratio of pH 5.0/pH 7.5 was increased to 22. Based on this initial structure and property relationship, the second round of 10 new analogs were designed using CypH-5 as the core, focusing on modifying the electron density on the aniline ring and the indolinium ring. Various alkyl groups, such as methyl, ethyl, propyl, isopropyl and their combinations, were applied to these two positions.
The CypH analogs with other longer alkyl chains had much lower background fluorescence. […] Among them, CypH-11, which has a methyl isopropyl aniline and an isopropyl group on the indolinium ring, gave a 112-fold enhancement in fluorescence signal. CypH-11 has absorbance and emission maxima at 766 nm and 785 nm, respectively (FIG. 4) and was selected as the lead compound (vide infra).

Row | SMILES | quantum yield (Φ) of standard compound [1] [%] | Ex Coeff (M^−1cm^−1) @ Abs Max ([2]; at absorbance maximum) | Abs. Max (nm) in EtOH ([2]; in EtOH) | Solubility [3] [mM in] | Ratio Intensity pH 5.0/7.5 ([4]; fluorescence intensity pH 5.0 over pH 7.5) | FL Intensity pH 5.0 ([4]; pH 5.0) | FL Max (nm) pH 5.0 ([4]; pH 5.0) [nm] | FL Intensity pH 7.5 ([4]; pH 7.5) | FL Max (nm) pH 7.5 ([4]; pH 7.5) [nm]
1 | CC1(C)C(/C=C/C=C/C=C/C=C2\N(CCCCS(=O)(=O)O)c3ccc4ccccc4c3C2(C)C)=[N+](CCCCS(=O)(=O)[O-])c2ccc3ccccc3c21 [indocyanine green] | 1.2 |  |  |  |  |  |  |  | 
2 | CC(C)N(C)c1ccc(OC2=C(/C=C/C3=[N+](CCCS(=O)(=O)[O-])c4ccccc4C3(C)C)CCC/C2=C\C=C2\N(CCCS(=O)(=O)[O-])c3ccccc3C2(C)C)cc1.[Na+] [CypH-9] |  | 176,300 M^−1cm^−1 | 769# nm | >1 | 5.3 | 5125 | 793 | 972 | 789

— US20230302159A1, “COMPOUNDS AND COMPOSITIONS FOR TUMOR DETECTION AND SURGICAL GUIDANCE” (Cornell University, priority 2020, published 2023)
